Laboratory results taken from US20160355530A1, “HEPATITIS C INHIBITORS AND USES THEREOF” (AbbVie Inc., priority 2010, published 2016).
Read-outs that look alike come from different tables or passages of the source.

Key:
[1] = tested on: HCV 1b-BB7 subgenomic replicon; assay: microbe, parasite or virus in culture; type: cell-based, HCV genotype 1b; conditions: Hepatitis C virus, stable replicon
[2] = tested on: chimeric replicon with genotype 3a NS5B; assay: microbe, parasite or virus in culture; type: cell-based, HCV genotype 3a; conditions: Hepatitis C virus, read-out: 3a chimera 5% FBS EC50
[3] = tested on: chimeric replicon with genotype 2b NS5B; assay: microbe, parasite or virus in culture; type: cell-based, HCV genotype 2b; conditions: Hepatitis C virus, read-out: 2b chimera 5% FBS EC50
[4] = target: T1, HCV NS5B polymerase 1b BK strain (Hepatitis C virus genotype 1b, UniProt P26663); assay: HCV NS5B polymerase enzymatic inhibition assay, strain 1b BK; type: biochemical; conditions: enzyme, strain 1b BK; read-out: HCV Polymerase Strain 1b BK IC50
T1 construct: six-histidine tag; made in house; host or cells: E. coli
T1 sequence (P26663 2420-2989): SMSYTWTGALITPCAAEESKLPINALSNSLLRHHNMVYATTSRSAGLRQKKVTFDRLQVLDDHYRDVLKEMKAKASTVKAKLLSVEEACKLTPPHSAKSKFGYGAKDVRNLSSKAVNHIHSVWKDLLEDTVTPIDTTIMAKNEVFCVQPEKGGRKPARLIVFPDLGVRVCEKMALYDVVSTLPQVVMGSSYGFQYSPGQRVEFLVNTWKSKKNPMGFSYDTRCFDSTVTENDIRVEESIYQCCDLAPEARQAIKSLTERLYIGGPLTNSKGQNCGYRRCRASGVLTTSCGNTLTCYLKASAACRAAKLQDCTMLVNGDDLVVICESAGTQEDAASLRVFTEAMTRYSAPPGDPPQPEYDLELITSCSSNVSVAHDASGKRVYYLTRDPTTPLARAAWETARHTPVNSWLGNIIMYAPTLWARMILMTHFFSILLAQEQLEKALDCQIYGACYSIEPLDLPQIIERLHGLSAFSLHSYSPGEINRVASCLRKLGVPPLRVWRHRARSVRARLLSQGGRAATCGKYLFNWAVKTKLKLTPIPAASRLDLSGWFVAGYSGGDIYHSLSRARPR
Summary of the method: (§1)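 Incorporation of [3H]UTP (0.284 μM), alongside 20 μM each CTP and ATP, into RNA copied from a 5 nM 2.1 kb genotype 1b negative-strand template was measured after 3 h at 30° C using purified His-tagged NS5B truncated at residue 570. Product was spermine-precipitated, filtered and scintillation-counted; nonlinear regression gave IC50.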

[5] = tested on: chimeric replicon with genotype 4a NS5B; assay: microbe, parasite or virus in culture; type: cell-based, HCV genotype 4a; conditions: Hepatitis C virus, read-out: 4a chimera 5% FBS EC50
[6] = tested on: HCV 1a-H77 subgenomic replicon; assay: microbe, parasite or virus in culture; type: cell-based, HCV genotype 1a; conditions: Hepatitis C virus, stable replicon
[7] = tested on: chimeric replicon with 2a-J6CF-derived NS5B; assay: microbe, parasite or virus in culture; type: cell-based, HCV genotype 2a; conditions: Hepatitis C virus, read-out: 2a chimera 5% FBS EC50
[8] = target: T2, HCV NS5B polymerase 1a-H77 (Hepatitis C virus genotype 1a, UniProt P27958); assay: biochemical; set-up: species or system HCV genotype 1a; conditions: enzyme, strain 1a H77; read-out: HCV Polymerase Strain 1a H77 IC50
T2 construct: six-histidine tag; made in house; host or cells: E. coli
T2 sequence (P27958 2421-2990): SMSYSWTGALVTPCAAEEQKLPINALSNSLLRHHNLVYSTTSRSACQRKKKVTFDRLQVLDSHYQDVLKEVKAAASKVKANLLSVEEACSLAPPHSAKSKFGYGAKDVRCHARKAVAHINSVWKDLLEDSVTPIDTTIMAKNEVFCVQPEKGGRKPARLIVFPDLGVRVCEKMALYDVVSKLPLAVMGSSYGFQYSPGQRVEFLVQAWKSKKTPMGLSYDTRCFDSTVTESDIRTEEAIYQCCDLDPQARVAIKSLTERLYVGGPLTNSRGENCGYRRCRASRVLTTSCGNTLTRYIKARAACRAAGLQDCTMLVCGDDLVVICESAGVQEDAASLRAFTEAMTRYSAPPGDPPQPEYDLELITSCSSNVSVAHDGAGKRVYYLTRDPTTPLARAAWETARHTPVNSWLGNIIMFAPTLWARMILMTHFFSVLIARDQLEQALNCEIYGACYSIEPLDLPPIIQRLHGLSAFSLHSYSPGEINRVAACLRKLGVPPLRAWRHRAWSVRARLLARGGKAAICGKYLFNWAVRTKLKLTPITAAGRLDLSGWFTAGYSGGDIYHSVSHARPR
Summary of the method: as §1

[9] = tested on: HCV NS5B polymerase 1a-H77-C316Y; assay: biochemical; set-up: species or system HCV genotype 1a; conditions: ratio of enzyme IC50s, 1a H77-C316Y / 1a H77
Summary of the method: as §1

[10] = target: T3, HCV NS5B polymerase 1a-H77-C316Y (Hepatitis C virus genotype 1a, UniProt P27958, C2736Y); assay: biochemical; set-up: species or system HCV genotype 1a
T3 construct: six-histidine tag; made in house; host or cells: E. coli
T3 sequence (P27958 2421-2990 C2736Y): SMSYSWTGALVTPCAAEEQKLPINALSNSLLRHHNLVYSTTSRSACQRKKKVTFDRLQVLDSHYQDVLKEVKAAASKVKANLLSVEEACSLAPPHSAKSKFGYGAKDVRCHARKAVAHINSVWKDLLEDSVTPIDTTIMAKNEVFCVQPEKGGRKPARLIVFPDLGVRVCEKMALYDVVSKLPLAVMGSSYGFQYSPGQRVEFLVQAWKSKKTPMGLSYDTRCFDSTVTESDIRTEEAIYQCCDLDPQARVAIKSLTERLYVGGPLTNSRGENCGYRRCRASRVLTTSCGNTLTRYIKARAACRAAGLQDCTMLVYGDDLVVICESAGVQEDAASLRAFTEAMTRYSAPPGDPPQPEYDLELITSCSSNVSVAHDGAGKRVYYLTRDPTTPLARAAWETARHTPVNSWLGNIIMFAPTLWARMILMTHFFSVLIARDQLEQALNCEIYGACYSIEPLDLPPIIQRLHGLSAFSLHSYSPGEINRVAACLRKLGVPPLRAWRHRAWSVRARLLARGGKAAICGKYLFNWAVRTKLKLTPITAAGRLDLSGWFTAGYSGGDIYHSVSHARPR
Summary of the method: as §1

[11] = strain 1b BB7, 5% FBS + 40% human plasma, read-out: 1b BB7 5% FBS + 40% Human Plasma EC50
[12] = strain 1b BB7, 5% FBS, no human plasma, read-out: 1b BB7 5% FBS EC50
[13] = strain 1b BB7, 5% FBS, read-out: 1b BB7 5% FBS EC50
[14] = 5% FBS, absence of human plasma, read-out: Stable Replicon 1a H77 5% FBS EC50
[15] = strain 1a H77, 5% FBS + 40% human plasma, read-out: 1a H77 5% FBS + 40% Human Plasma EC50
[16] = strain 1a H77, 5% FBS, no human plasma, read-out: 1a H77 5% FBS EC50
[17] = strain 1a H77, 5% FBS, read-out: 1a H77 5% FBS EC50

| Structure (SMILES) | EC50 [1, 11] | EC50 [1, 12] | EC50 [1, 13] | EC50 [2] | EC50 [3] | IC50 [4] | EC50 [5] | EC50 [6, 14] | EC50 [6, 15] | EC50 [6, 16] | EC50 [6, 17] | EC50 [7] | IC50 [8] | C316Y/1a Fold Resistance [9] | IC50 [10] |
| --- | --- | --- | --- | --- | --- | --- | --- | --- | --- | --- | --- | --- | --- | --- | --- |
| CS(=O)(=O)N(CC1CC1)c1cc2oc(-c3ccc(F)cc3)c(-c3ncc[nH]3)c2cc1C1CC1 [Example 53, N-[5-cyclopropyl-2-(4-fluorophenyl)-3-(1H-imidazol-2-yl)-1-benzofuran-6-yl]-N-(cyclopropylmethyl)methanesulfonamide] | 224 nM | 52 nM | 52 nM | 23 nM | 267 nM | 245 nM | 379 nM | 111 nM | 1010 nM | 111 nM | 111 nM | 154 nM | 4.9 nM | 46 fold | 223 nM |
| CC(C)=CCN(c1cc2oc(-c3ccc(F)cc3)c(-c3ncc[nH]3)c2cc1C1CC1)S(C)(=O)=O [Example 54, N-[5-cyclopropyl-2-(4-fluorophenyl)-3-(1H-imidazol-2-yl)-1-benzofuran-6-yl]-N-(3-methylbut-2-en-1-yl)methanesulfonamide] | 734 nM | 64 nM | 64 nM | 51 nM | 601 nM | 293 nM | 635 nM | 89 nM | 935 nM | 89 nM | 89 nM | 267 nM | 4.5 nM | 43 fold | 192 nM |
| CS(=O)(=O)N(CC1CC1(F)F)c1cc2oc(-c3ccc(F)cc3)c(-c3ncc[nH]3)c2cc1C1CC1 (stereo not drawn) [Example 55, N-[5-cyclopropyl-2-(4-fluorophenyl)-3-(1H-imidazol-2-yl)-1-benzofuran-6-yl]-N-[(2,2-difluorocyclopropyl)methyl]methanesulfonamide] | 363 nM | 37 nM | 37 nM | 18 nM | 348 nM | 28 nM | 557 nM | 68 nM | 1020 nM | 68 nM | 68 nM | 184 nM | 5 nM | 73 fold | 366 nM |
| CCN(c1cc2oc(-c3ccc(F)cc3)c(-c3ncc[nH]3)c2cc1C1CC1)S(C)(=O)=O [Example 56, N-[5-cyclopropyl-2-(4-fluorophenyl)-3-(1H-imidazol-2-yl)-1-benzofuran-6-yl]-N-ethylmethanesulfonamide] | 62 nM | 12.1 nM | 12.1 nM | 9.6 nM | 42.6 nM | 17 nM | 81.9 nM | 27.8 nM | 192 nM | 27.8 nM | 27.8 nM | 49.3 nM | 3.5 nM | 64 fold | 220 nM |
| C=CCN(c1cc2oc(-c3ccc(F)cc3)c(-c3ncc[nH]3)c2cc1C1CC1)S(C)(=O)=O [Example 57, N-allyl-N-[5-cyclopropyl-2-(4-fluorophenyl)-3-(1H-imidazol-2-yl)-1-benzofuran-6-yl]methanesulfonamide] | 69 nM | 17.7 nM | 17.7 nM | 9.1 nM | 72.4 nM | 11 nM | 138 nM | 35.2 nM | 306 nM | 35.2 nM | 35.2 nM | 51.5 nM | 3 nM | 77 fold | 232 nM |
